The text below walks through data of paper PMC12722920, “Pharmacokinetics and pharmacodynamics of cannabigerol (CBG) in the C57BL/6Crl mouse” (Frontiers in Pharmacology, 2025).

Where two headings read alike, the source gives them in different places.

Data set [1] has as its system C57BL/6Crl mice. Briefly: Open field test (OFT): locomotion and anxiety-like behaviour. The class given is in vivo. The following applies: for OFT time in the center: compared to the vehicle. The procedure: Catalepsy was assessed in the ring holding assay; mice were positioned with their forepaws grasping onto a 0.5 cm thick ring clamp elevated 5 cm above the testing surface. The duration of time while the ring was held was recorded in seconds, with each trial terminated if the mouse’s forepaw released from the bar, upon turning of the head or body, or after 60 s of immobility. Catalepsy was evaluated three times consecutively, and the average time spent holding the bar was reported as a percent of the maximum possible effect (% MPE, up to 60 s). Internal body temperature was measured via a rectal thermometer. Nociception was determined by assessing tail-flick latency, where mice were restrained with their tails placed ∼1 cm into 52 °C ± 2 °C water. The time (sec) until the tail was removed was measured, with observations ending at 20 s and represented as a % MPE. Locomotion and anxiety-like behaviour were assessed in the OFT. Mice were placed in an open space (90 cm × 90 cm) and recorded for 5 min. Total distance travelled (cm), velocity (cm/sec), time in the centre quadrant (sec), and central quadrant entries were measured with EthoVision XT (Noldus Information Technology Inc., Leesburg, VA).
In Phase I (Part B), after determining the timepoint at which blood CBG concentrations were highest for each respective route of administration, the timing for each measure in the tetrad was adjusted. An assessment was conducted in a new cohort consisting of both male and female mice (n = 4 per sex per route) receiving a dose of 10 mg/kg of CBG via i.v., i.p., or p.o. routes. For those administered with i.v. CBG, the timing was: catalepsy at 5 min, body temperature at 15 min, tail-flick latency at 20 min, and OFT at 25 min post-injection. For i.p. CBG, measurements were taken at 20 min for catalepsy, 25 min for body temperature, 30 min for tail-flick latency, and 35 min for OFT post-injection. For p.o. CBG, data collection was scheduled as follows: catalepsy at 170 min, body temperature at 175 min, tail-flick latency at 180 min, and OFT at 185 min post-injection.

Data set [2] has as its system C57BL/6Crl mice. The arrangement: method as in Zagzoog et al., 2024. As to conditions: THC, ref Zagzoog et al., 2024, cited from earlier work.
For data set [3], the system named is C57BL/6Crl mice. The arrangement: method as in Zagzoog et al., 2024. The following applies: THC, ref Zagzoog et al., 2024, cited from earlier work. This is another data set of the same source.
Data set [4] concerns C57BL/6Crl mice. Set-up: method as in Zagzoog et al., 2024. The following applies: THC, ref Zagzoog et al., 2024, cited from earlier work. This is another data set of the same source.
The conditions of data set [5]: ref Zagzoog et al., 2024, cited from earlier work.
The conditions of data set [6]: THC 10 mg/kg i.v.; ref Zagzoog et al., 2024; cited from earlier work.

Take `CCCCCc1cc(O)c2c(c1)OC(C)(C)[C@@H]1CCC(C)=C[C@@H]21` [THC, Δ^9-Tetrahydrocannabinol]: the “OFT entries to the center” value is “entered the center fewer times than their vehicle-treated counterparts” with C57BL/6Crl mice [1] (10 mg/kg i.p., compared to vehicle); “entered the center fewer times than their vehicle-treated counterparts” in the data set with C57BL/6Crl mice [1] (10 mg/kg i.v., compared to vehicle); “entered the center of the OFT fewer times than vehicle oral gavage mice” with C57BL/6Crl mice [1] (10 mg/kg p.o.). Also, the OFT velocity entry in the data set on C57BL/6Crl mice [1] (10 mg/kg i.v., 25 min post-administration, male and female mice) is “reduced velocity compared to vehicle treatment”. Also, the “OFT time in the center” value with C57BL/6Crl mice [1] (10 mg/kg i.v.) and in the data set on C57BL/6Crl mice [1] (10 mg/kg p.o.) was “Time in the center was reduced” each time. In addition, the results for the ED50 catalepsy in the data set with C57BL/6Crl mice [2] (both sexes), with C57BL/6Crl mice [2] (females) and with C57BL/6Crl mice [2] (males) were 6.9 mg/kg, 6.0 mg/kg and 8.6 mg/kg, respectively. The ED50 body temperature with C57BL/6Crl mice [3] (both sexes) was 7.8 mg/kg; with C57BL/6Crl mice [3] (females), 7.3 mg/kg; with C57BL/6Crl mice [3] (males), 8.3 mg/kg. Also, the values for the ED50 tail-flick latency in the data set with C57BL/6Crl mice [4] (both sexes), in the data set on C57BL/6Crl mice [4] (females) and with C57BL/6Crl mice [4] (males) were 4.1 mg/kg, 3.6 mg/kg and 4.9 mg/kg, respectively. The values for the Cmax in data set [5] (10 mg/kg THC i.p.) and in data set [5] (THC p.o.) were 377 ng/mL and 149.5 ng/mL, respectively. In addition, the “C at 10 min (blood concentration 10 min post-administration)” value in data set [5] (THC i.v., males) was 1,290 ng/mL. For the same molecule, the “p.o. Cmax as percent of i.p. Cmax” value in data set [5] (THC) was 40%. Further, in data set [6], the mean blood concentration is recorded as 526 ng/mL.

Usually Cmax stands for the maximum level reached in the sampled fluid or tissue.
